From ChEMBL document CHEMBL1126921, “Heterocyclic lactam derivatives as dual angiotensin converting enzyme and neutral endopeptidase 24.11 inhibitors” (J Med Chem, 1993) come the findings set out here.

The term IC50 denotes the point on the concentration scale where inhibition reaches its midpoint. Read a high IC50 as a need for much substance. By inhibition in vivo is commonly meant the share of the control response that was lost under treatment.

For assay [1], the target named is T1, Angiotensin-converting enzyme (Oryctolagus cuniculus, UniProt P12822).
T1 sequence (P12822 whole entry): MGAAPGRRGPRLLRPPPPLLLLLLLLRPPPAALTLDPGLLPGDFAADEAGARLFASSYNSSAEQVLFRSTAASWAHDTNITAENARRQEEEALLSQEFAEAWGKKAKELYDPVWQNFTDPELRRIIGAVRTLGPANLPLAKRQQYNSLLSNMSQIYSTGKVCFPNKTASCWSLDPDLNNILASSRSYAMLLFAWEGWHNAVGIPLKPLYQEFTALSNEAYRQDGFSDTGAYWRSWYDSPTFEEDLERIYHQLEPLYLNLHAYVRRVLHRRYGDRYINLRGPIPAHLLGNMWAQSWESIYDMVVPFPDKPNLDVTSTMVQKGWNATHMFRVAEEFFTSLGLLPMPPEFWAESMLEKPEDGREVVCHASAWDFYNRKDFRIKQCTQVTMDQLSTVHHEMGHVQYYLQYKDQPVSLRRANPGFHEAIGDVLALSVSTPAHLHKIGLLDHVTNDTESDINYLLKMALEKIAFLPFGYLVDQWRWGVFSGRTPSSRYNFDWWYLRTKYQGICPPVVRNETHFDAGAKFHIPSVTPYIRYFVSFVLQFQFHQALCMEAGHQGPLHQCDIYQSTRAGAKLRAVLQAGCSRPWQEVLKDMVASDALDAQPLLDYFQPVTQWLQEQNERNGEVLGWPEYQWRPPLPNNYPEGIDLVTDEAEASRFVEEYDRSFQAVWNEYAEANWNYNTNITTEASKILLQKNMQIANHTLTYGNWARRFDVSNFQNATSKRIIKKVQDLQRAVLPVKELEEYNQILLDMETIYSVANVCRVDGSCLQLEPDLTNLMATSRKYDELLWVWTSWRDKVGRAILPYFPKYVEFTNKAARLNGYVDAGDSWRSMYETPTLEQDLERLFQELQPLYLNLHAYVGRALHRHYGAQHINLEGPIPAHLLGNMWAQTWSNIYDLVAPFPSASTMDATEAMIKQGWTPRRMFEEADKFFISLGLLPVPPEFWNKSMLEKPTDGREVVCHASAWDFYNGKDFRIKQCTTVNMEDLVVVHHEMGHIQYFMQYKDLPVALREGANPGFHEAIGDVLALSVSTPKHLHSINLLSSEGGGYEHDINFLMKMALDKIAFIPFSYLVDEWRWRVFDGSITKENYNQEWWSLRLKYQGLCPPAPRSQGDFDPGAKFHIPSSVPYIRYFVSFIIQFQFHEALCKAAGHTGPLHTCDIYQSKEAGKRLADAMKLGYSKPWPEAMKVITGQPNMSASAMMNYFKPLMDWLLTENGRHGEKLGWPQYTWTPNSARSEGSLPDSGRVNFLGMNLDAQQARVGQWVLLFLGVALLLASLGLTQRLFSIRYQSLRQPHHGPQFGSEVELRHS
The assay can be described thus: Tested in vitro for the inhibition of angiotensin converting enzyme from rabbit lung.

Assay [2] concerns the target T2, Neprilysin (Rattus norvegicus, UniProt P07861).
T2 sequence (P07861 whole entry): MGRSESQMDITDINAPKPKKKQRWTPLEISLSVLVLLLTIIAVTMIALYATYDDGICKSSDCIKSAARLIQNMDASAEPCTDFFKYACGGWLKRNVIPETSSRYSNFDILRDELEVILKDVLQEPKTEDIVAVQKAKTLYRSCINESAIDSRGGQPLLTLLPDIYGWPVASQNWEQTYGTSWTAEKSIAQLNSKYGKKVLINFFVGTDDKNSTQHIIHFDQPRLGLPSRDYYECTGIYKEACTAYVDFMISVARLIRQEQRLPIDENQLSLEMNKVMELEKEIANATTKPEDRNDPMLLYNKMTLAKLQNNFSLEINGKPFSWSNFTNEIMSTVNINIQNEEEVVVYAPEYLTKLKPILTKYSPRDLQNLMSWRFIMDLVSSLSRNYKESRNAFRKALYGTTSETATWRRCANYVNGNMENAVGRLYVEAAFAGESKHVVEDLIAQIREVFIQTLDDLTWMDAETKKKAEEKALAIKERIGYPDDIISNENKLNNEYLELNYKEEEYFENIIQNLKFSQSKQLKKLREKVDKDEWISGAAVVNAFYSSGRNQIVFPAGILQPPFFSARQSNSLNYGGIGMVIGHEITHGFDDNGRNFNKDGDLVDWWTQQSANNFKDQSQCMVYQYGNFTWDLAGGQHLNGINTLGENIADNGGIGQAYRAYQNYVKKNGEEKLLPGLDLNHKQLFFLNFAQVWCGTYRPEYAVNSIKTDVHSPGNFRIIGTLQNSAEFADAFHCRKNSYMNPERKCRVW
As to the kind of experiment: Tested in vitro for the inhibition against neutral endopeptidase (NEP) from rat kidney.

In assay [3] the test system is Rattus norvegicus. The assay can be described thus: Tested for the inhibition of angiotensin I (AI) pressor response after 0.5 hour following an oral dose of 10 mg/kg. Type of assay: functional.
The subject of assay [4] is Rattus norvegicus. The assay can be described thus: Tested for the inhibition of angiotensin I (AI) pressor response after 1 hour following an oral dose of 10 mg/kg. In kind it is functional.
Assay [5] has as its system Rattus norvegicus. The assay can be described thus: Tested for the inhibition of angiotensin I (AI) pressor response after 2 hours following an oral dose of 10 mg/kg. Type of assay: functional.
The test system of assay [6] is Rattus norvegicus. The assay can be described thus: Tested for the plasma concentration based on ex vivo NEP inhibition after 0.5 hour following an oral dose of 10 mg/kg. Type of assay: functional, organism-based. Further details: dose 10 mg/kg.
Assay [7] deals with Rattus norvegicus. As to the kind of experiment: Tested for the plasma concentration based on ex vivo NEP inhibition after 3 hours following an oral dose of 10 mg/kg. Type of assay: functional, organism-based. Further details: dose 10 mg/kg.
The test system of assay [8] is Rattus norvegicus. As to the kind of experiment: Tested for the plasma concentration based on ex vivo NEP inhibition after 2 hours following an oral dose of 10 mg/kg. Type of assay: functional, organism-based. Further details: dose 10 mg/kg.
Assay [9] relates to Rattus norvegicus. As to the kind of experiment: Tested for the plasma concentration based on ex vivo NEP inhibition after 1 hour following an oral dose of 10 mg/kg. Type of assay: functional, organism-based. Set-up: dose 10 mg/kg.

For the compound `O=C1N[C@H](C(=O)O)CSCCCCCCCC1CS` (single isomer, unassigned; isomer A), the IC50 came to 72 nM in assay [1] and 190 nM in assay [2].
`O=C1N[C@H](C(=O)O)CSCCCCCCCC1CS` (single isomer, unassigned; isomer B) [listing 1 of 2 here]: the IC50 in assay [1] was determined as 12 nM; in [2], 18 nM. The inhibition in vivo at 10 mg/kg was 71% in assay [3], 17% in assay [4] and 0% in assay [5].
Turning to `O=C1N[C@H](C(=O)O)CSCCCCCCCC1CS` (single isomer, unassigned; isomer B) [listing 2 of 2 here], the Plasma concentration in [6] came out at 1.81 µM; in [7] it was 0.06 µM; in assay [8], 0.17 µM; in assay [9] it was 0.32 µM.
Consider `O=C1N[C@H](C(=O)O)CSCCCCCCCCC1CS` (stereo in doubt; 12a), for which the half-inhibitory concentration (IC50) in assay [1] amounted to 4600 nM; in [2] it was 1300 nM.
In the case of `O=C1N[C@H](C(=O)O)CSCCCCCCCCC1CS` (stereo in doubt; 12b), the figures for the concentration for half-maximal inhibition (IC50) in assay [1] and in assay [2] were 17 nM and 167 nM, respectively.
Take `O=C(O)CN1C(=O)[C@@H](N[C@@H](CCc2ccccc2)C(=O)O)CCc2ccccc21` [BENAZEPRILAT]: the inhibition in vivo at 10 mg/kg in [3] was 100%; in [4], 86%; in [5], 77%.
